Assay results: US10336746B1, “RAD51 inhibitors” (Cyteir Therapeutics, Inc., priority 2017, dated 2019)
Where two headings read alike, the source gives them in different places.

How the values were obtained:
[1] = tested on: Daudi cell line (AID positive); assay: Primary screening cell killing assay, Daudi cell line (AID positive); type: cell-based; conditions: Homo sapiens, 168 h, cell death on Day 7, Cell-Titer Glo
Description: (§1) Primary screening was a phenotypic screen that utilized the synthetic lethal interaction between AID and RAD51 to identify compounds that were both potent and on target. AID expressing cells are dependent upon RAD51 for survival; inhibiting RAD51 in AID positive cells results in a cytotoxic effect.
The first step was to set up a cell killing assay in the Daudi cell line (AID positive). A 96 well u-bottom plate was prepared by writing the experiment number, plate number, date and initials in the top right corner of the plate lid. With a sterile 300 ml reservoir, and 25 ml serological pipette, evaporation buffer media was pipetted into reservoir in 25 ml increments. Using the liquid handler, 150 ul of evaporation buffer media was pipetted from reservoir into rows A and H, and Columns 1 and 12 of the 96 well u-bottom plate. Cell cultures were counted to obtain the density of cells per ml, and the culture viability. The cell density information was used to obtain 1,000,000 cells from culture using a 5 mL serological pipette into an epi tube. The cell density information from the culture was used to calculate the number of cells and volume of media needed for the assay to seed 1250 cells in 130 ul of media per available culture well in the 96 well u-bottom plate. Rows B through F were used for cells (50 wells in total), with row G left for an empty media control. The calculation was overestimated by 10 mL to account for the dead volume in the 300 ml reservoir. Once the media volume was calculated, the appropriate volume of media was pipetted in 25 mL increments into the 250 mL bottle using a 25 mL serological pipette. The 250 ml bottle was capped tightly, and placed into a 37° C. water bath for 2 minutes. While the culture media was warming, 10 mL of fresh media was pipetted from the 500 mL culture media bottle into a sterile 25 mL reservoir. Using the Eppendorf multichannel pipette, 130 ul of media was pipetted from the 25 mL reservoir into row G of the 96 well u-bottom plate. Once the 250 mL bottle of media was warmed, the volume of culture needed was pipetted into the bottle, and mixed gently with a 25 mL serological pipette as to not create bubbles, and then the contents of the bottle were pipetted into a new 300 mL reservoir. Using the liquid handler, 130 ul of culture was pipetted from the 300 mL reservoir into rows B through F of the 96 well u-bottom plate. Once the culture was added, the plate was placed into a 37° C. incubator until the compound master plate was prepared for use.
Two 96 well u-bottom plates were prepared by writing the master plate name in the upper right corner of the plate lid. Labeling one DMSO master and the other Media Master. The compounds of interest were obtained from the laboratory freezer, and placed into a 25 well storage box with a lid, and set the box aside. The compounds were vortexed after thawing but before use. Using an automatic multichannel pipette, 20 ul of 100% DMSO was pipetted into wells B3-B11 through G3-G11 of the DMSO master plate. For each compound on the master plate, 50 ul of the compound were pipetted in the appropriate well of row 2 (reference plate map to determine appropriate well). A serial dilution was prepared beginning by aspirating 20 ul from row 2 and mixing with row 3, repeating until row 11 was reached. Using the liquid handler, 194 ul of Daudi media was dispensed into wells B2-B11 through G2-G11 of the Media master plate. Using the liquid handler, 6 ul from the DMSO master plate was aspirated and dispensed into the media master plate, mixing 100 ul twice.
Compounds from master plate were then added to the culture plate. The culture plates were removed from the incubator, and set inside the biosafety cabinet. Using a liquid handler, 20 ul from wells B2 to B11 through G2 to G11 of master plate were aspirated, and dispensed into wells B2 to B11 through G2 to G11 of culture plate. This set was continued with each culture plate. […]

[2] = tested on: WI-38 cells (AID negative); assay: Primary screening cell killing assay repeated in WI-38 cells (AID negative); type: cell-based; conditions: Homo sapiens, 168 h, cell death on Day 7, Cell-Titer Glo
Description: as §1
Percent cell death and EC50 values were calculated by comparing the cell viability of the compound treated wells to the non-treated wells. Normalized RLU values were obtained by subtracting the media well values from each of the wells in the same column, and then dividing that value by the DMSO treated cells values. The percent kill was then calculated by subtracting the normalized RLU value from 1 and multiplying by 100. The average normalized percent kill value and standard error of the mean was then calculated. The kill values were then inputted into Prism with the corresponding standard errors. In Prism a non-linear regression line was plotted with the data points using a semi-log scale, and the EC50 value was calculated.

[3] = Bi-directional Caco-2 permeability; type: in vitro ADME; conditions: human; for efflux ratio at 90 min: Caco-2, read-out: BA/AB Ratio; for Papp A→B at 90 min: Caco-2, apical to basolateral, read-out: AB Papp (cm/sec × 10^6); for Papp A→B at 90 min / Papp B→A at 90 min: 37 C, up to 90 minutes; for Papp B→A at 90 min: Caco-2, basolateral to apical, read-out: BA Papp (cm/sec × 10^6)
Description: Bi-directional Caco-2 permeability was assayed. Caco-2 cells were seeded onto permeable polycarbonate supports and allowed to differentiate for about 3 weeks prior to being used in the assays. The cells were then exposed to the compounds from either the apical or basolateral sides and incubated at 37 C for up to 90 minutes under light agitation. Compound transport was then measured using LC/MS/MS analysis at 30, 60, and 90 minutes.

[4] = Caco-2, Caco-2, AB direction, read-out: AB Recovery %
[5] = Caco-2, Caco-2, BA direction, read-out: BA Recovery %

| recovery at 90 min [3, 4] | recovery at 90 min [3, 5] | efflux ratio at 90 min [3] | Papp A→B at 90 min [3] | Papp B→A at 90 min [3] | Compound | EC50 [1] | EC50 [2] |
| --- | --- | --- | --- | --- | --- | --- | --- |
|  |  |  |  |  | CC(C)OC(=O)NC12CCC(c3ncc(-c4ccc(NC(=O)N[C@@H](C)c5ccccc5)cc4S(=O)(=O)NC(C)(C)C)s3)(CC1)CC2 [Ex. 13, isopropyl (S)-(4-(5-(2-(N-(tert-butyl)sulfamoyl)-4-(3-(1-phenylethyl)ureido)phenyl)thiazol-2-yl)bicyclo[2.2.2]octan-1-yl)carbamate] | ≤ 0.1 µM | > 1 µM |
| 44.8% | 96.6% | 1.1 | 94 nm/s | 104 nm/s | CC(C)NC(=O)O[C@H]1CC[C@H](c2ncc(-c3ccc(NC(=O)OC(C)C)cc3S(=O)(=O)NC(C)(C)C)s2)CC1 [Ex. 20, trans-isopropyl N-[3-(tert-butylsulfamoyl)-4-[2-[4-(isopropylcarbamoyloxy)cyclohexyl]thiazol-5-yl]phenyl]carbamate] | > 1 µM |  |
|  |  |  |  |  | CC(C)OC(=O)Nc1ccc(-c2cnc(N3CC(NC(=O)OC(C)C)C3)s2)c(S(=O)(=O)NC(C)(C)C)c1 [Ex. 46, isopropyl N-[3-(tert-butylsulfamoyl)-4-[2-[3-(isopropoxycarbonylamino)azetidin-1-yl]thiazol-5-yl]phenyl]carbamate] | > 1 µM | > 1 µM |
|  |  |  |  |  | CC(C)OC(=O)N[C@H]1CC[C@H](c2ncc(-c3ccc(NC(=O)N[C@@H](C)c4ccccn4)cc3S(=O)(=O)NC(C)(C)C)s2)CC1 [Ex. 32, isopropyl ((1S,4r)-4-(5-(2-(N-(tert-butyl)sulfamoyl)-4-(3-((S)-1-(pyridin-2-yl)ethyl)ureido)phenyl)thiazol-2-yl)cyclohexyl)carbamate] | ≤ 0.1 µM | > 1 µM |
|  |  |  |  |  | CC(C)OC(=O)N[C@H]1CC[C@H](c2ncc(-c3ccc(NC(=O)N[C@@H](C)c4ccccc4)cc3S(=O)(=O)NC(C)(C)C)s2)CC1 [Ex. 26, isopropyl ((1S,4r)-4-(5-(2-(N-(tert-butyl)sulfamoyl)-4-(3-((S)-1-phenylethyl)ureido)phenyl)thiazol-2-yl)cyclohexyl)carbamate] | ≤ 0.1 µM | > 1 µM |
|  |  |  |  |  | CC(C)OC(=O)NC12CCC(c3ncc(-c4ccc(NC(=O)NCc5ccccc5)cc4S(=O)(=O)NC(C)(C)C)s3)(CC1)CC2 [Ex. 18, isopropyl (4-(5-(4-(3-benzylureido)-2-(N-(tert-butyl)sulfamoyl)phenyl)thiazol-2-yl)bicyclo[2.2.2]octan-1-yl)carbamate] | ≤ 0.1 µM | > 1 µM |
|  |  |  |  |  | CC(C)OC(=O)N[C@H]1CC[C@H](c2ncc(-c3ccc(NC(=O)O[C@@H](C)c4ccccc4)cc3S(=O)(=O)NC(C)(C)C)s2)CC1 [Ex. 71, trans-[(1S)-1-phenylethyl] N-[3-(tert-butylsulfamoyl)-4-[2-[4-(isopropoxycarbonylamino)cyclohexyl]thiazol-5-yl]phenyl]carbamate] | ≤ 0.1 µM | > 1 µM |
| 58.6% | 78.3% | 3 | 36 nm/s | 107 nm/s | CC(C)NC(=O)O[C@H]1CC[C@H](c2ncc(-c3ccc(NC(=O)NCc4ccccc4)cc3S(=O)(=O)NC(C)(C)C)s2)CC1 [Ex. 21, (1r,4r)-4-(5-(4-(3-benzylureido)-2-(N-(tert-butyl)sulfamoyl)phenyl)thiazol-2-yl)cyclohexyl isopropylcarbamate] | ≤ 0.1 µM |  |
| 83.6% | 90% | 2.5 | 105 nm/s | 267 nm/s | CC(C)OC(=O)Nc1ccc(-c2cnc([C@@H]3CC[C@@H](NC(=O)OC(C)C)CN3)s2)c(S(=O)(=O)NC(C)(C)C)c1 (relative stereo) [Ex. 63, trans-isopropyl N-[6-[5-[2-(tert-butylsulfamoyl)-4-(isopropoxycarbonylamino)phenyl]thiazol-2-yl]-3-piperidyl]carbamate] | 0.1 to 1 µM |  |
| 73.6% | 84.4% | 1.4 | 76 nm/s | 108 nm/s | CC(C)(C)NS(=O)(=O)c1cc(NC(=O)NCc2ccccn2)ccc1-c1cnc(C2CCC(NC(=O)OC(C)(C)C)CC2)s1 (stereo not drawn) [Ex. 45, tert-butyl ((1r,4r)-4-(5-(2-(N-(tert-butyl)sulfamoyl)-4-(3-(pyridin-2-ylmethyl)ureido)phenyl)thiazol-2-yl)cyclohexyl)carbamate] | ≤ 0.1 µM |  |
| 66.9% | 81% | 1.7 | 19 nm/s | 33 nm/s | CC(C)OC(=O)N[C@H]1CC[C@H](c2ncc(-c3ccc(NC(=O)NCc4ccccc4F)cc3S(=O)(=O)NC(C)(C)C)s2)CC1 [Ex. 28, isopropyl ((1r,4r)-4-(5-(2-(N-(tert-butyl)sulfamoyl)-4-(3-(2-fluorobenzyl)ureido)phenyl)thiazol-2-yl)cyclohexyl)carbamate] | ≤ 0.1 µM |  |
| 34.7% | 80.8% | 0.4 | 59 nm/s | 22 nm/s | CC(C)OC(=O)Nc1ccc(-c2cnc(N3CCN(C(=O)OC(C)C)CC3)s2)c(S(=O)(=O)NC(C)(C)C)c1 [Ex. 5, isopropyl 4-[5-[2-(tert-butylsulfamoyl)-4-(isopropoxycarbonylamino)phenyl]thiazol-2-yl]piperazine-1-carboxylate] | > 1 µM |  |
| 98.8% | 108% | 99.1 | 4 nm/s | 410 nm/s | CC(C)OC(=O)N[C@H]1CC[C@H](c2ncc(-c3ccc(NC(=O)OC[C@@H]4CCCN4C)cc3S(=O)(=O)NC(C)(C)C)s2)CC1 [Ex. 35, isopropyl ((1S,4r)-4-(5-(2-(N-(tert-butyl)sulfamoyl)-4-(((((S)-1-methylpyrrolidin-2-yl)methoxy)carbonyl)amino)phenyl)thiazol-2-yl)cyclohexyl)carbamate] | 0.1 to 1 µM |  |

| Compound | recovery at 90 min [3, 4] | recovery at 90 min [3, 5] | efflux ratio at 90 min [3] | Papp A→B at 90 min [3] | Papp B→A at 90 min [3] | EC50 [1] | EC50 [2] |
| --- | --- | --- | --- | --- | --- | --- | --- |
| CC(C)OC(=O)Nc1ccc(-c2cnc([C@H]3CC[C@H](NC(=O)OC4CCCC4)CC3)s2)c(S(=O)(=O)NC(C)(C)C)c1 [Ex. 7, trans-isopropyl N-[3-(tert-butylsulfamoyl)-4-[2-[4-(cyclopentoxycarbonylamino)cyclohexyl]thiazol-5-yl]phenyl]carbamate] | 55.9% | 92% | 1.2 | 17 nm/s | 21 nm/s | 0.1 to 1 µM |  |
| CC(C)OC(=O)Nc1ccc(-c2cnc([C@H]3CC[C@H](NC(=O)OC(C)(C)C)CC3)s2)c(S(=O)(=O)NC(C)(C)C)c1 [Ex. 44, trans-isopropyl N-[4-[2-[4-(tert-butoxycarbonylamino)cyclohexyl]thiazol-5-yl]-3-(tert-butylsulfamoyl)phenyl]carbamate] | 36.2% | 69.4% | 1.3 | 32 nm/s | 42 nm/s | > 1 µM |  |
